# Reference: the NIST ThermoML archive (doi:10.1016/j.jct.2013.06.003)
# Values joined by “and” are separate entries in the source; they are usually repeats but may differ in a detail not shown here. Equal entries are not always repeated. ± gives the expanded uncertainty stated by the source.
# Experiments:
# [1] = Molar enthalpy of transition or fusion; conditions: Crystal; DSC
# [2] = Crystal; for Normal melting temperature: DTA; for vapor or sublimation pressure: Calculated from knudsen effusion weight loss
smiles,measurement,setting,value
N#Cc1cccc(Br)c1 [3-bromobenzonitrile],Molar enthalpy of transition or fusion,[1],3.97 ± 0.454 kcal/mol
N#Cc1ccccc1Br [2-bromobenzonitrile],Molar enthalpy of transition or fusion,[1],4.11 ± 0.167 kcal/mol
same,Normal melting temperature,[2],54.0 ± 0.7 °C
N#Cc1ccc(I)cc1 [4-iodobenzonitrile],Molar enthalpy of transition or fusion,[1],5.64 ± 0.263 kcal/mol
same,vapor or sublimation pressure,[2]; 294.17 K,0.000111 ± 6e-06 kPa and 0.000109 ± 5e-06 kPa and 0.00011 ± 6e-06 kPa
same,vapor or sublimation pressure,[2]; 296.2 K,0.000141 ± 7e-06 kPa and 0.000143 ± 7e-06 kPa
same,vapor or sublimation pressure,[2]; 298.18 K,0.000182 ± 9e-06 kPa
same,vapor or sublimation pressure,[2]; 300.18 K,0.000226 ± 1.1e-05 kPa and 0.000228 ± 1.1e-05 kPa and 0.000223 ± 1.1e-05 kPa
same,vapor or sublimation pressure,[2]; 302.26 K,0.000294 ± 1.5e-05 kPa and 0.000296 ± 1.5e-05 kPa
same,vapor or sublimation pressure,[2]; 304.29 K,0.000353 ± 1.8e-05 kPa and 0.000365 ± 1.8e-05 kPa and 0.000368 ± 1.8e-05 kPa
same,vapor or sublimation pressure,[2]; 306.28 K,0.000452 ± 2.3e-05 kPa and 0.000454 ± 2.3e-05 kPa and 0.000444 ± 2.2e-05 kPa
same,vapor or sublimation pressure,[2]; 308.2 K,0.000562 ± 2.8e-05 kPa and 0.000563 ± 2.8e-05 kPa and 0.000565 ± 2.8e-05 kPa
same,vapor or sublimation pressure,[2]; 310.15 K,0.000715 ± 3.6e-05 kPa and 0.000717 ± 3.6e-05 kPa and 0.000701 ± 3.5e-05 kPa
same,vapor or sublimation pressure,[2]; 312.16 K,0.000889 ± 4.5e-05 kPa and 0.000882 ± 4.4e-05 kPa
same,vapor or sublimation pressure,[2]; 314.05 K,0.00108 ± 0.00011 kPa and 0.00106 ± 0.00011 kPa
same,Normal melting temperature,[2],125.46 ± 0.39 °C
N#Cc1ccc(Br)cc1 [4-bromobenzonitrile],Molar enthalpy of transition or fusion,[1],4.95 ± 0.263 kcal/mol
N#Cc1ccccc1I [2-iodobenzonitrile],Molar enthalpy of transition or fusion,[1],3.97 ± 0.311 kcal/mol
same,vapor or sublimation pressure,[2]; 283.19 K,0.000104 ± 5e-06 kPa and 0.000103 ± 5e-06 kPa and 0.000101 ± 5e-06 kPa
same,vapor or sublimation pressure,[2]; 285.15 K,0.000128 ± 6e-06 kPa and 0.000129 ± 6e-06 kPa and 0.000125 ± 6e-06 kPa
same,vapor or sublimation pressure,[2]; 287.17 K,0.00016 ± 8e-06 kPa and 0.000159 ± 8e-06 kPa and 0.000168 ± 8e-06 kPa
same,vapor or sublimation pressure,[2]; 288.91 K,0.000199 ± 1e-05 kPa and 0.000205 ± 1e-05 kPa
same,vapor or sublimation pressure,[2]; 291.13 K,0.000263 ± 1.3e-05 kPa and 0.000257 ± 1.3e-05 kPa and 0.000268 ± 1.3e-05 kPa
same,vapor or sublimation pressure,[2]; 293.15 K,0.000336 ± 1.7e-05 kPa and 0.000341 ± 1.7e-05 kPa and 0.000346 ± 1.7e-05 kPa
same,vapor or sublimation pressure,[2]; 295.15 K,0.000419 ± 2.1e-05 kPa and 0.000414 ± 2.1e-05 kPa and 0.000427 ± 2.1e-05 kPa
same,vapor or sublimation pressure,[2]; 297.15 K,0.000521 ± 2.6e-05 kPa and 0.000547 ± 2.7e-05 kPa
same,vapor or sublimation pressure,[2]; 299.12 K,0.000651 ± 3.3e-05 kPa and 0.00066 ± 3.3e-05 kPa and 0.000671 ± 3.4e-05 kPa
same,vapor or sublimation pressure,[2]; 301.15 K,0.000857 ± 4.3e-05 kPa and 0.000861 ± 4.3e-05 kPa and 0.000864 ± 4.3e-05 kPa
same,vapor or sublimation pressure,[2]; 303.17 K,0.00103 ± 0.0001 kPa
same,Normal melting temperature,[2],53.54 ± 0.39 °C
N#Cc1cccc(I)c1 [3-iodobenzonitrile],Molar enthalpy of transition or fusion,[1],3.61 ± 0.311 kcal/mol
same,vapor or sublimation pressure,[2]; 276.18 K,9.88e-05 ± 5e-06 kPa and 0.0001 ± 5e-06 kPa and 9.93e-05 ± 5e-06 kPa
same,vapor or sublimation pressure,[2]; 278.16 K,0.000122 ± 6e-06 kPa and 0.000125 ± 6e-06 kPa and 0.000123 ± 6e-06 kPa
same,vapor or sublimation pressure,[2]; 280.26 K,0.000161 ± 8e-06 kPa and 0.00016 ± 8e-06 kPa and 0.000163 ± 8e-06 kPa
same,vapor or sublimation pressure,[2]; 282.15 K,0.000204 ± 1e-05 kPa and 0.000206 ± 1e-05 kPa and 0.000207 ± 1e-05 kPa
same,vapor or sublimation pressure,[2]; 284.15 K,0.000269 ± 1.3e-05 kPa
same,vapor or sublimation pressure,[2]; 286.17 K,0.00034 ± 1.7e-05 kPa and 0.000339 ± 1.7e-05 kPa and 0.000336 ± 1.7e-05 kPa
same,vapor or sublimation pressure,[2]; 288.17 K,0.000437 ± 2.2e-05 kPa and 0.000432 ± 2.2e-05 kPa and 0.000441 ± 2.2e-05 kPa
same,vapor or sublimation pressure,[2]; 290.14 K,0.000539 ± 2.7e-05 kPa and 0.000537 ± 2.7e-05 kPa and 0.00054 ± 2.7e-05 kPa
same,vapor or sublimation pressure,[2]; 292.13 K,0.00069 ± 3.5e-05 kPa and 0.000686 ± 3.4e-05 kPa and 0.000699 ± 3.5e-05 kPa
same,vapor or sublimation pressure,[2]; 294.21 K,0.000869 ± 4.4e-05 kPa and 0.000876 ± 4.4e-05 kPa and 0.000882 ± 4.4e-05 kPa
same,vapor or sublimation pressure,[2]; 296.14 K,0.0011 ± 0.00011 kPa and 0.00111 ± 0.00011 kPa
same,Normal melting temperature,[2],40.12 ± 0.39 °C
